# Source: patent US10464896B2, “Efflux-pump inhibitors and therapeutic uses thereof” (Basilea Pharmaceutica International AG, priority 2015, dated 2019)
# Test system: E. coli ATCC25922
# Experiment: Antibacterial activity in combination with minocycline (growth inhibition)
# Assay type: cell-based
# Conditions: Escherichia coli, ATCC25922, compound at 25 μM; minocycline 0.25 μg/mL; OD625 23 h minus 1 h; read-out: residual growth of E. coli ATCC25922 (% of uninhibited control) with minocycline
# Description: Antibacterial activity in combination with minocycline or with linezolid
# Inhibition of growth was measured with E. coli ATCC25922 and P. aeruginosa PAO1 in a 96-well plate format. Cation-adjusted Müller-Hinton broth (caMHB) was inoculated with an overnight culture and incubated at 37° C. on a shaker until OD625 reached 0.6 to 0.7. Density was adjusted to OD600=0.5 by addition of caMHB. 35 μL of the suspension were diluted to 35 mL with caMHB and supplemented with minocycline at the subinhibitory doses of 0.25 μg/mL for E. coli and 8 μg/mL for P. aeruginosa or with linezolid at the subinhibitory dose of 128 μg/mL for E. coli and P. aeruginosa. Each well contained 1 μL of test compound in 100 μL caMHB with minocycline or with linezolid.
# Plates were incubated at 37° C. on a plate shaker. OD625 was measured at 1 h, 6 h, and at 23 h.
# The difference between OD at 23 h and at 1 h was taken as measure for cell density and compared to controls without inhibitor (i.e. uninhibited control). Results were expressed as residual growth (% of uninhibited control). Enhancement of minocycline or linezolid activity caused reduced residual growth.
row,SMILES,activity at 25 µM [%]
1,Clc1ccc(/C=C/c2cc(Cl)ccc2OCCNCC2CNC2)c(Br)c1 [Example 209],≤ 10
2,Clc1ccc(/C=C/c2cc(Cl)ccc2OCCNCC2CCNC2)c(Br)c1 (stereo not shown) [Example 210],≤ 10
3,C=CCOc1ccc(OCCNCC2CCNC2)c(/C=C/c2ccc(Cl)cc2Br)c1 (stereo not shown) [Example 211],≤ 10
4,C=CCOc1ccc(OCCNCC2CNC2)c(/C=C/c2ccc(Cl)cc2Br)c1 [Example 212],≤ 10
5,C=CCOc1ccc(OCCCNCC2CCNC2)c(/C=C/c2ccc(Cl)cc2Br)c1 (stereo not shown) [Example 213],≤ 10
6,C=CCOc1ccc(OCCCNCC2CNC2)c(/C=C/c2ccc(Cl)cc2Br)c1 [Example 214],≤ 10
7,CC(C)(C)c1ccc(COc2ccc(CNCC3CCNC3)cc2)cc1 (stereo not shown) [Example 215],≤ 10
8,CC(C)(C)c1ccc(COc2cccc(CNCC3CCNC3)c2)cc1 (stereo not shown) [Example 216],≤ 10
9,CC(C)c1cc(CNCC2CCNC2)cc(OCc2ccc(Cl)cc2Br)c1 (stereo not shown) [Example 217],≤ 10
10,CC(C)(C)c1cc(CNCC2CCNC2)cc(OCc2ccc(Cl)cc2Br)c1 (stereo not shown) [Example 218],≤ 10
11,CC(C)c1cc(CNCC2CNC2)cc(OCc2ccc(Cl)cc2Br)c1 [Example 224],≤ 10
12,CC(C)(C)c1cc(CNCC2CNC2)cc(OCc2ccc(Cl)cc2Br)c1 [Example 225],≤ 10
13,CC(C)(C)c1ccc(COc2cc(Cl)cc(CNC3CCNCC3)c2)cc1 [Example 226],≤ 10
14,CC(C)(C)c1ccc(COc2cc(Cl)cc(CNCC3CCNC3)c2)cc1 (stereo not shown) [Example 227],≤ 10
15,CC(C)(C)c1ccc(COc2cc(Cl)cc(CNCC3CNC3)c2)cc1 [Example 228],≤ 10
16,Clc1ccc(COc2cccc(CNCC3CNC3)c2)c(I)c1 [Example 229],≤ 10
17,Clc1ccc(COc2cccc(CNCC3CCNC3)c2)c(I)c1 (stereo not shown) [Example 230],≤ 10
18,CC(C)(C)c1ccc(COc2ccc(CNCC3CNC3)cc2)cc1 [Example 231],≤ 10
19,CC(C)(C)c1ccc(/C=C/c2cccc(CNCC3CCNC3)c2)cc1 (stereo not shown) [Example 233],≤ 10
20,CC(C)(C)c1ccc(/C=C/c2cccc(CNCC3CNC3)c2)cc1 [Example 234],≤ 10
21,CC(C)(C)c1ccc(/C=C\c2cccc(CNC3CCNCC3)c2)cc1 [Example 235],≤ 10
22,"CC(C)(C)c1ccc(/C=C\c2cccc(CNCC3CCNC3)c2)cc1 (stereo not shown) [Example 236, 1-[3-[(Z)-2-(4-tert-butylphenyl)vinyl]phenyl]-N-(pyrrolidin-3-ylmethyl)methanamine]",≤ 10
23,CC(C)(C)c1ccc(/C=C\c2cccc(CNCC3CNC3)c2)cc1 [Example 237],≤ 10
24,Clc1ccc(COc2cc(CNCC3CCNC3)cc(OCCN3CCOCC3)c2)c(Br)c1 (stereo not shown) [Example 238],≤ 10

row,SMILES,activity at 25 µM [%]
1,Clc1ccc(COc2cc(CNCC3CNC3)cc(OCCN3CCOCC3)c2)c(Br)c1 [Example 239],≤ 10
2,CC(C)(C)c1ccc(/C=C/c2cccc(CNC3CCNCC3)c2)cc1 [Example 240],≤ 10
3,Clc1ccc(/C=C\c2cc(CNCC3CCNC3)cc(OCCN3CCOCC3)c2)c(Br)c1 (stereo not shown) [Example 241],≤ 10
4,Clc1ccc(/C=C\c2cc(CNCC3CNC3)cc(OCCN3CCOCC3)c2)c(Br)c1 [Example 242],≤ 10
5,Clc1ccc(/C=C/c2cc(CNCC3CNC3)cc(OCCN3CCOCC3)c2)c(Br)c1 [Example 243],≤ 10
6,Clc1ccc(/C=C/c2cc(CNCC3CCNC3)cc(OCCN3CCOCC3)c2)c(Br)c1 (stereo not shown) [Example 246],≤ 10
7,C[N+]1(C)CC(OCCOc2cc(CNCC3CCNC3)cc(OCc3ccc(Cl)cc3Br)c2)CC1C(=O)O (stereo not shown) [Example 247],≤ 10
8,C[N+]1(C)CC(OCCOc2cc(CNCC3CNC3)cc(OCc3ccc(Cl)cc3Br)c2)CC1C(=O)O (stereo not shown) [Example 248],≤ 10
9,CN1CC(OCCOc2cc(CNCC3CNC3)cc(OCc3ccc(Cl)cc3Br)c2)CC1C(=O)O (stereo not shown) [Example 249],≤ 10
10,Clc1ccc(COc2cc(CNCC3CNC3)cc(OCCc3c[nH]cn3)c2)c(Br)c1 [Example 252],≤ 10
11,Clc1ccc(/C=C\c2cc(CNCC3CCNC3)cc(OCCc3ccncc3)c2)c(Br)c1 (stereo not shown) [Example 253],≤ 10
12,Clc1ccc(/C=C/c2cc(CNCC3CCNC3)cc(OCCc3ccncc3)c2)c(Br)c1 (stereo not shown) [Example 254],≤ 10
13,Clc1ccc(/C=C\c2cc(CNCC3CNC3)cc(OCCc3c[nH]cn3)c2)c(Br)c1 [Example 255],≤ 10
14,Clc1ccc(COc2cc(CNCC3CNC3)cc(OCCc3ccncc3)c2)c(Br)c1 [Example 256],≤ 10
15,Clc1ccc(/C=C\c2cc(CNCC3CNC3)cc(OCCc3ccncc3)c2)c(Br)c1 [Example 257],≤ 10
16,Clc1ccc(COc2cc(CNCC3CCNC3)cc(OCCc3ccncc3)c2)c(Br)c1 (stereo not shown) [Example 258],≤ 10
17,Clc1ccc(/C=C\c2cc(CNCC3CCNC3)cc(OCCc3c[nH]cn3)c2)c(Br)c1 (stereo not shown) [Example 259],≤ 10
18,Clc1ccc(/C=C/c2cc(CNCC3CNC3)cc(OCCc3ccncc3)c2)c(Br)c1 [Example 260],≤ 10
19,Clc1ccc(/C=C/c2cc(CNCC3CNC3)cc(OCCc3c[nH]cn3)c2)c(Br)c1 [Example 261],≤ 10
20,Clc1ccc(/C=C/c2cc(CNCC3CCNC3)cc(OCCc3c[nH]cn3)c2)c(Br)c1 (stereo not shown) [Example 262],≤ 10
21,CC(C)COc1cc(CNCC2CCNC2)cc(OCc2ccc(C(F)(F)F)cc2)c1 (stereo not shown) [Example 264],≤ 10
22,CC(C)COc1cc(CNCC2CCNC2)cc(OCc2ccc(C(F)(F)F)cc2C(F)(F)F)c1 (stereo not shown) [Example 265],≤ 10
23,COc1cc(C#N)ccc1COc1cc(CNCC2CCNC2)cc(OCC(C)C)c1 (stereo not shown) [Example 266],≤ 10
24,CC(C)COc1cc(CNCC2CCNC2)cc(OCc2ccc(Cl)cn2)c1 (stereo not shown) [Example 267],≤ 10

row,SMILES,activity at 25 µM [%]
1,CC(C)COc1cc(CNCC2CCNC2)cc(OCc2ccc(F)cc2Br)c1 (stereo not shown) [Example 268],≤ 10
2,CC(C)COc1cc(CNCC2CCNC2)cc(OCc2ccc(Cl)nc2)c1 (stereo not shown) [Example 269],≤ 10
3,CC(C)COc1cc(CNCC2CCNC2)cc(OCc2ccc(C(F)(F)F)cc2F)c1 (stereo not shown) [Example 271],≤ 10
4,C=CCOc1cc(/C=C/c2ccc(F)cc2)cc(CNCC2CNC2)c1 [Example 272],≤ 10
5,CC(C)COc1cc(CNCC2CNC2)cc(OCc2ccc(C(C)(C)C)cc2)c1 [Example 274],≤ 10
6,C=CCOc1cc(/C=C/c2ccc(C(F)(F)F)cc2)cc(CNCC2CNC2)c1 [Example 275],≤ 10
7,CC(C)COc1cc(CNCC2CCNC2)cc(OCc2ccc(F)cc2C(F)(F)F)c1 (stereo not shown) [Example 280],≤ 10
8,CC(C)COc1cc(CNCC2CCNC2)cc(OCc2ccc(Cl)cc2C(F)(F)F)c1 (stereo not shown) [Example 281],≤ 10
9,CC(C)COc1cc(CNCC2CCNC2)cc(OCc2ccc(C(F)(F)F)cc2Br)c1 (stereo not shown) [Example 282],≤ 10
10,CC(C)COc1cc(CNCC2CCNC2)cc(OCc2ccc(F)nc2F)c1 (stereo not shown) [Example 283],≤ 10
11,C=CCOc1cc(/C=C/c2ccc(C#N)cc2)cc(CNCC2CNC2)c1 [Example 284],≤ 10
12,CC(C)COc1cc(CNCC2CCNC2)cc(OCc2ccc(C(F)(F)F)cn2)c1 (stereo not shown) [Example 289],≤ 10
13,CC(C)COc1cc(CNCC2CCNC2)cc(OCc2ccc(C(C)(C)C)cc2Br)c1 (stereo not shown) [Example 290],≤ 10
14,CC(C)COc1cc(CNCC2CCNC2)cc(OCc2ccc(C(F)(F)F)nc2)c1 (stereo not shown) [Example 291],≤ 10
15,C=CCOc1cc(/C=C/c2ccc(C(C)(C)C)cc2)cc(CNCC2CNC2)c1 [Example 292],≤ 10
16,C=CCOc1cc(/C=C/c2ccc(OC)cc2)cc(CNCC2CNC2)c1 [Example 294],≤ 10
17,CC(C)(C)c1ccc(COc2cc(CNCC3CNC3)cc(C(C)(C)C)c2)cc1 [Example 295],≤ 10
18,C=CCOc1cc(CNCC2CNC2)cc(OCc2ccc(C(C)(C)C)cc2)c1 [Example 296],≤ 10
19,CC(C)(C)c1ccc(COc2cc(CNCC3CNC3)cc(OCc3ccccc3)c2)cc1 [Example 297],≤ 10
20,C=CCOc1cc(/C=C/c2ccc(C#N)c(C(F)(F)F)c2)cc(CNCC2CNC2)c1 [Example 299],≤ 10
21,C=CCOc1cc(/C=C/c2ccc(C#N)c(C(F)(F)F)c2)cc(CNCC2CCNC2)c1 (stereo not shown) [Example 300],≤ 10
22,N#Cc1ccc(/C=C/c2cccc(CNCC3CCNC3)c2)cc1C(F)(F)F (stereo not shown) [Example 301],≤ 10
23,C=CCOc1cc(/C=C/c2ccncc2C#N)cc(CNCC2CCNC2)c1 (stereo not shown) [Example 306],≤ 10
24,C=CCOc1cc(/C=C/c2ccc(C#N)cn2)cc(CNCC2CCNC2)c1 (stereo not shown) [Example 307],≤ 10

# Same assay, conditions: Escherichia coli, ATCC25922, compound at 50 μM; minocycline 0.25 μg/mL; OD625 23 h minus 1 h; read-out: residual growth of E. coli ATCC25922 (% of uninhibited control) with minocycline
row,SMILES,activity at 50 µM [%]
1,CC(C)COc1cc(CNCC2CCNC2)cc(OCc2cccnc2Br)c1 (stereo not shown) [Example 278],≤ 50
